Experimental data reported in US20090098529A1 (priority 2006, published 2009).

Test system: GI-101A tumors
Set-up: species or system nude mice
Settings: mouse, in vivo

SMILES	Effect on tumor growth
COc1cccc2c1C(=O)c1c(O)c3c(c(O)c1C2=O)C[C@@](O)(C(=O)CO)C[C@@H]3O[C@H]1C[C@H](N)[C@H](O)[C@H](C)O1 [Doxorubicin, doxorubicin]	did not have any effect on the rate of tumor growth
N.N.[Cl][Pt][Cl] [Cisplatin, cis-diamminedichloroplatinum]	decreased the rate of tumor growth, but did not shrink tumors
